Experimental data reported in patent publication US11180504B2 (ORCHID PHARMA LTD., priority 2016, dated 2021).
Values after ≈ are worked out from the molar mass of the structure shown.

Key:
[1] = tested on: carbapenem sensitive Escherichia coli; assay: MIC by broth micro-dilution (CLSI), carbapenem sensitive E. coli; format: cell-based; conditions: Escherichia coli, ATCC25922, ESBL −ve E. coli ATCC25922; read-out: MIC
[2] = tested on: carbapenem sensitive Pseudomonas aeruginosa; assay: MIC by broth micro-dilution (CLSI), carbapenem sensitive P. aeruginosa; format: cell-based; conditions: Pseudomonas aeruginosa, ATCC27853, Meropenem susceptible P. aeruginosa ATCC27853; read-out: MIC
[3] = tested on: carbapenemase producing K. pneumoniae; assay: MIC by broth micro-dilution (CLSI), carbapenemase producing K. pneumoniae; format: cell-based, Klebsiella pneumoniae; conditions: Klebsiella pneumoniae, ATCCBAA1705, KPC-2 K. pneumoniae ATCC BAA-1705; read-out: MIC
[4] = tested on: methicillin-sensitive Staphylococcus aureus; assay: MIC by broth micro-dilution (CLSI), methicillin-sensitive S. aureus; format: cell-based; conditions: Staphylococcus aureus, ATCC 29213 / MSSA, MSSA S. aureus ATCC29213; read-out: MIC

C[C@@H](NC(=O)Cn1cnnn1)[C@H]1C(=O)N2C(C(=O)O)=C(S[C@@H]3CN[C@H](C(=O)N4CC[C@H](N)C4)C3)[C@H](C)[C@H]12 [Example 324]
MIC [1]: 0.5 µg/mL (≈ 0.937 µM) | MIC [2]: 4 µg/mL (≈ 7.5 µM) | MIC [3]: 4 µg/mL (≈ 7.5 µM) | MIC [4]: 4 µg/mL (≈ 7.5 µM)

CO/N=C(\C(=O)N[C@H](C)[C@H]1C(=O)N2C(C(=O)O)=C(S[C@@H]3CN[C@H](C(=O)N(C)C)C3)[C@H](C)[C@H]12)c1csc(N)n1 [Example 325, (4R,5S,6R)-6-((R) - 1-((Z)-2-(2-aminothiazol-4-yl)-2-(methoxyimino)acetamido)ethyl)-3-((3S,5S)-5-(dimethylcarbamoyl)pyrrolidin-3-ylthio)-4-methyl-7-oxo-1-azabicyclo[3.2.0]hept-2-ene-2-carboxylic acid]
MIC [1]: 4 µg/mL (≈ 7.07 µM) | MIC [2]: > 128 µg/mL | MIC [3]: 64 µg/mL (≈ 113 µM) | MIC [4]: 8 µg/mL (≈ 14.1 µM)

C[C@H]([C@H]1C(=O)N2C(C(=O)O)=C(S[C@@H]3CN[C@H](C(=O)N(C)C)C3)[C@H](C)[C@H]12)n1nnc(N)n1 [Example 326, (4R,5S,6S)-6-((R) - 1-(5-amino-2H-tetrazol-2-yl)ethyl)-3-((3S,5S)-5-(dimethylcarbamoyl)pyrrolidin-3-ylthio)-4-methyl-7-oxo-1-azabicyclo[3.2.0]hept-2-ene-2-carboxylic acid]
MIC [1]: 1 µg/mL (≈ 2.22 µM) | MIC [2]: 64 µg/mL (≈ 142 µM) | MIC [3]: 16 µg/mL (≈ 35.5 µM) | MIC [4]: 2 µg/mL (≈ 4.44 µM)

C[C@H]([C@H]1C(=O)N2C(C(=O)O)=C(S[C@@H]3CN[C@H](C(=O)N4CC[C@@H](N)C4)C3)[C@H](C)[C@H]12)n1nnc(N)n1 [Example 327, (4R,5S,6S)-6-((R) - 1-(5-amino-2H-tetrazol-2-yl)ethyl)-3-((3S,5S)-5-((R)-3-aminopyrrolidine-1-carbonyl)pyrrolidin-3-ylthio)-4-methyl-7-oxo-1-azabicyclo[3.2.0]hept-2-ene-2-carboxylic acid]
MIC [1]: 2 µg/mL (≈ 4.07 µM) | MIC [2]: 64 µg/mL (≈ 130 µM) | MIC [3]: 32 µg/mL (≈ 65.1 µM) | MIC [4]: 1 µg/mL (≈ 2.03 µM)

C[C@H]([C@H]1C(=O)N2C(C(=O)O)=C(S[C@@H]3CN[C@H](C(=O)N4CC[C@@H](N)C4)C3)[C@H](C)[C@H]12)n1cnnn1 [Example 328, (4R,5S,6S)-6-((R) - 1-(1H-tetrazol-1-yl)ethyl)-3-((3S,5S)-5-((R)-3-aminopyrrolidine-1-carbonyl)pyrrolidin-3-ylthio)-4-methyl-7-oxo-1-azabicyclo[3.2.0]hept-2-ene-2-carboxylic acid]
MIC [1]: 2 µg/mL (≈ 4.2 µM) | MIC [2]: 32 µg/mL (≈ 67.1 µM) | MIC [3]: 4 µg/mL (≈ 8.39 µM) | MIC [4]: 4 µg/mL (≈ 8.39 µM)

C[C@@H](NC(=O)Cn1cnnn1)[C@H]1C(=O)N2C(C(=O)O)=C(S[C@@H]3CN[C@H](C(=O)N4C[C@@H](N)[C@H](O)C4)C3)[C@H](C)[C@H]12 [Example 329, (4R,5S,6R)-6-((R) - 1-(2-(1H-tetrazol-1-yl)acetamido)ethyl)-3-((3S,5S)-5-((3R,4R)-3-amino-4-hydroxypyrrolidine-1-carbonyl)pyrrolidin-3-ylthio)-4-methyl-7-oxo-1-azabicyclo[3.2.0]hept-2-ene-2-carboxylic acid]
MIC [1]: 0.25 µg/mL (≈ 0.455 µM) | MIC [2]: 8 µg/mL (≈ 14.6 µM) | MIC [3]: 2 µg/mL (≈ 3.64 µM) | MIC [4]: 8 µg/mL (≈ 14.6 µM)

Cc1nnnn1CC(=O)N[C@H](C)[C@H]1C(=O)N2C(C(=O)O)=C(S[C@@H]3CN[C@H](C(=O)N(C)C)C3)[C@H](C)[C@H]12 [Example 330, (4R,5S,6R)-3-((3S,5S)-5-(dimethylcarbamoyl)pyrrolidin-3-ylthio)-4-methyl-6-((R) - 1-(2-(5-methyl-1H-tetrazol-1-yl)acetamido)ethyl)-7-oxo-1-azabicyclo[3.2.0]hept-2-ene-2-carboxylic acid]
MIC [1]: 0.25 µg/mL (≈ 0.493 µM) | MIC [2]: 64 µg/mL (≈ 126 µM) | MIC [3]: 2 µg/mL (≈ 3.95 µM) | MIC [4]: 8 µg/mL (≈ 15.8 µM)
